Consider 26 molecules from patent US9655822B2, “Hydrated lamellar phases or liposomes which contain a fatty monoamine or a cationic polymer which promotes intracellular penetration, and a cosmetic or pharmaceutical composition containing same, as well as a method of screening such a substance” (BASF Beauty Care Solutions France S.A.S., priority 2004, dated 2017).

In data set [1] the test system is normal human fibroblasts. As to the kind of experiment: Cell viability in the screening of functionalising molecules. As to conditions: 1% of molecule (25 kDa PEI: 50 μM), 96-well plate. The method, then: 250 μl of liposomal suspension is added onto cultures of normal human fibroblasts extracted from abdominal plasy and cultivated in a 96-well plate. Each concentration is tested on 6 different wells. The cell viability is evaluated by a test with paranitrophenylphosphate which determines the intracellular alkaline phosphatase activity after three rinses with pH 7.4 phosphate buffer. The percentage of living cells is calculated with respect to a control made without the addition of liposome in the culture well (n=6).
55 molecules are firstly tested in triplicate, in comparison with the 50 μM 25 kDa PEI. The intracellular penetration is quantified after 24 hours of incubation on normal human fibroblasts cultivated in 24-well plates as described in Example 2. The cell viability is estimated in a 96-well plate with 200 μl of liposomal suspension.
The intracellular penetration and the cytotoxicity are evaluated as described in Example 2.

Data set [2] can be described thus: Encapsulation of fluorescent tracer in soya lecithin liposomes (yield, leak). In kind it is physicochemical. The method, then:
0.5 g of soya lecithin, 0.01% of fluorescent tracer which is pre-solubilised according to the recommendations of the provider, are introduced into a dish and is diluted in 10 ml of Trizma buffer. After magnetic agitation for 30 minutes at ambient temperature, the mixture is vigorously homogenised for 10 minutes, in thus obtaining a liposomal solution in which the liposomes have an average size which can vary between 100 and 800 nanometres according to the exact conditions of homogenisation.
The aim of the purification step is to separate the non-encapsulated tracer fraction from the fraction of tracer which is encapsulated in the liposomes. For this, the liposomal solution is centrifuged in a conical tube for 10 minutes at 1,790 g at ambient temperature. The plugs are then recovered and then solubilised in 10 ml of culture medium.
Liposomes are prepared according to the method described in Example 5 with increasing concentrations of 25 kDa PEI from 0 to 100 μM. After centrifugation at 1,790 g for 10 minutes, the supernatants are quantified by spectrofluorimetry. The yields of encapsulation are calculated with respect to the initial concentration.

Data set [3] has as its system normal human fibroblasts. As to the kind of experiment: Intracellular penetration of fluorescent tracers, free or in liposomes (spectrofluorimetry). In kind it is cell-based. As to conditions: for cell-permeating: free probe; for Penetration in liposome: probe encapsulated in liposome; for Penetration (fluorescence after washing): 0.01% tracer in liposomes; for Penetration (fluorescence after washing) / Penetration free probe: 24 hours, gain (45 PFB-F, 50 TRITC). From the text: (§1) The selection of the tracer necessitated the preparation and the purification of liposomes, according to the protocol described in Example 1, these liposomes containing varying concentrations of the various hydrosoluble or liposoluble tracers (Table 1, Annex 1). The controls—a free fluorescent tracer—are made by dissolution at the same concentration of fluorescent tracer in the dilution buffer, so as to quantify its cytotoxicty and its spontaneous penetration in the fibroblasts.
Practically, after extraction from a biopsy originating from abdominal plastic surgery, the fibroblasts are amplified in DF medium, i.e.: DMEM (Dulbecco's Modified Eagle's Medium)/Ham F12 glutamax 50/50 volume/volume, supplemented with 10% of calf serum, with penicillin at a final concentration of 100 UI/millilitre, with gentamicin at a final concentration of 1 microgram/millilitre, with amphotericin B at a final concentration of 1 microgram/millilitre.
Firstly, after centrifugation, the purified liposomes are taken up into DF culture medium, homogenised in a vortex, and are deposited at the rate of 1 ml per well on the fibroblasts cultivated in 24-well plates (Costar MW24). The controls are made under the same conditions. A non-treated control is also made.
(§2) The fibroblasts are incubated for 24 hours at 37° C. in the presence of the liposomes, and are then rinsed 3 times in pH 7.4 phosphate buffer. First of all, the fluorescence is evaluated dry by spectrofluorimetry with a Cytofluor 4000® (Millipore). Secondly, the intracellular fluorescence is observed for the molecules of interest on an Olympus® reverse microscope (IX70) by using the corresponding excitation filter (objective ×10, ×40 and ×100). Finally, the cytotoxicity of the fluorescent tracers is evaluated in a 96-well plate by incubation for 24 hours as described in Example 1.
The intracellular penetration of liposomes which contain 5% of soya lecithin, 0.01% of PFB-F or TRITC in the presence or not of 0.5% 25 kDa polyethylenimine (PEI), which are prepared according to the protocol described in Example 1, is analysed after incubation for 24 hours on human fibroblasts cultivated in a 24-well plate, as described in Example 2.

Data set [4] relates to normal human fibroblasts. Briefly: Cytotoxicity of the fluorescent tracers (paranitrophenylphosphate test). The format is cell-based. As to conditions: for Cell viability (% of untreated control): incubation 24 hours. The method, then: Each concentration is tested on 6 different wells.
as §1, §2

As to `CCCCCCCCCCCCCCCCCCN` [Octadecylamine C18, Octadecylamine], in the data set with normal human fibroblasts [1], the Viability was 61.2%.
Take `O=S(=O)([O-])c1cc(O)c2ccc3c(S(=O)(=O)[O-])cc(S(=O)(=O)[O-])c4ccc1c2c34.[Na+].[Na+].[Na+]` [hydroxypyrene trisulfonic acid, trisodium salt]: the Encapsulated result in data set [2] is recorded as “No”. Moreover, in the data set with normal human fibroblasts [3], the cell-permeating entry was “No” and the Penetration in liposome entry is listed as “No”.
`O=C1OC2(c3ccc(O)cc3Oc3cc(O)ccc32)c2ccc(NC(=O)c3c(F)c(F)c(F)c(F)c3F)cc21` [PFB-F, 5-pentafluorobenzoylaminofluorescein]: the Encapsulated entry in data set [2] is on record as “Yes”. For the same molecule, the leak entry in data set [2] is given as “No”. Further, the “Yield (%) of encapsulation of PFB-F” value in data set [2] (PEI 0 μM) is reported as 89.0%; in data set [2] (PEI 1 μM), 92.3%; in data set [2] (PEI 10 μM), 91.0%; in data set [2] (PEI 50 μM) it was 87.5%; in data set [2] (PEI 100 μM), 86.3%. In addition, the “yield of incorporation in the liposomes” value in data set [2] (liposomes based on soya lecithin) is on record as “about 80%”. In the data set with normal human fibroblasts [3], the “Penetration (fluorescence after washing)” value is 65 (gain 45). For the same molecule, the cell-permeating entry in the data set on normal human fibroblasts [3] is recorded as “No”. Also, the Penetration free probe in the data set with normal human fibroblasts [3] (free tracer) was 8 (gain 45). Further, the Penetration in liposome result with normal human fibroblasts [3] is listed as “Yes”. For the same molecule, in the data set on normal human fibroblasts [4], the “Cell viability (% of untreated control)” value was 110.7%.
`CCCCCCCCCCN` [Decylamine C10, Decylamine] registered a Viability with normal human fibroblasts [1] of 68.5%.
The same measure, in the same setting: for `CCCCCCN` [Hexylamine C6, Hexylamine] the value was 82.1%; for `CCCCCCCCCCCCCN` [Tridecylamine C13, Tridecylamine], 62.6%.
As for `Cc1ccc(N(CC(=O)[O-])CC(=O)[O-])c(OCCOc2cc3cc(-c4ncc(C(=O)[O-])o4)oc3cc2N(CC(=O)[O-])CC(=O)[O-])c1.[K+].[K+].[K+].[K+].[K+]` [#F-1200 Fura-2. pentapotassium salt, Fura-2. pentapotassium salt], the Encapsulated result in data set [2] is recorded as “No”. For the same molecule, in the data set on normal human fibroblasts [3], the cell-permeating entry is given as “No” and the Penetration in liposome entry is given as “No”. The Toxicity result with normal human fibroblasts [4] is “No”.
`CCCCNCCCC` [Dibutylamine 2 C4, Dibutylamine]: in the data set with normal human fibroblasts [1], the Viability worked out at 75.7%.
Take “sulfo fluorescein diacetate [#S-1129 sulfo fluorescein diacetate]”: in the data set with normal human fibroblasts [3], the cell-permeating entry is given as “no” and the Penetration in liposome result was “Very low”. Besides, the Toxicity result in the data set with normal human fibroblasts [4] was “No”.
Take `CCCN` [Propylamine C3, Propylamine]: in the data set on normal human fibroblasts [1], the Viability is given as 103.3%.
Take `NNC(=O)COc1cc(S(=O)(=O)[O-])c2ccc3c(S(=O)(=O)[O-])cc(S(=O)(=O)[O-])c4ccc1c2c43.[Na+].[Na+].[Na+]` [cascade blue hydrazine trisodium salt]: in data set [2], the Encapsulated result is listed as “Yes”. Moreover, in the data set with normal human fibroblasts [3], the cell-permeating entry was “No” and the Penetration in liposome entry is “Very low”. The Toxicity entry with normal human fibroblasts [4] is “No”.
In the data set with normal human fibroblasts [1], `CC(O)CN(CCN(CC(C)O)CC(C)O)CC(C)O` (centres unmarked) [Tetrahydroxypropyl ethylenediamine] came in with a Viability of 95.3%.
In the case of “carboxy dichlorofluorescein [#C-369 carboxy dichlorofluorescein]”, in data set [2], the Encapsulated entry is on record as “Yes” and the leak result is recorded as “Yes”. In addition, the cell-permeating entry in the data set on normal human fibroblasts [3] is “Yes”.
For “dextran texas red [#D-3329 dextran texas red]”, in the data set on normal human fibroblasts [3], the cell-permeating entry is reported as “No” and the Penetration in liposome entry is “No”.
In turn, `CCCCCCCCCCCCCCCN` [Pentadecylamine C15, Pentadecylamine] gave a Viability in the data set on normal human fibroblasts [1] of 73%.
Regarding “carboxyethyl carboxyffluorescein [#B-1151 carboxyethyl carboxyffluorescein]”, the Encapsulated result in data set [2] is recorded as “No”.
`CCCCCCCCCCCCN` [Dodecylamine C12, Dodecylamine]: in the data set with normal human fibroblasts [1], the Viability amounted to 57%.
Still for that read-out and setting: the result for `CCCCCCCN` [Heptylamine C7, Heptylamine] reads 39.4%.
“tetramethylrhodamine isothiocyanate [TRITC]”: the Encapsulated result in data set [2] was “Yes”. In the data set with normal human fibroblasts [3], the “Penetration (fluorescence after washing)” value was 1,119 (gain 50) and the Penetration in liposome entry is recorded as “Yes”. For the same molecule, in the data set with normal human fibroblasts [3] (free tracer), the “penetration when added free in the culture medium (in words)” value is reported as “penetrates slightly” and the Penetration free probe is 295 (gain 50). Also, in the data set with normal human fibroblasts [4], the Toxicity entry is “No”, the “cytotoxicity (in words)” value is “slightly cyctotoxic” and the “Cell viability (% of untreated control)” value came out at 74.8%.
`CCCCCCCCCCNCCCCCCCCCC` [Didecylamine 2 C10, Didecylamine] showed a Viability in the data set on normal human fibroblasts [1] of 28.3%.
On the same count and under the same terms, for `CCCCCCCCNCCCCCCCC` [Dioctylamine 2 C8, Dioctylamine] the value was 34.7%; for `CCCCCCCC/C=C\CCCCCCCCN` [Oleylamine C18:1, Oleylamine], 87.1%; for `CCCCCCCCCCCCCCN` [Tetradecylamine C14, Tetradecylamine], 54.8%.
Same read-out and setting: for `CCCCCCCCCCCN` [Undecylamine C11, Undecylamine] the value was 84%.
As to “Lysosensor yellow/blue DND 160 [#L7545L Lysosensor yellow/blue DND 160]”, in data set [2], the Encapsulated result is given as “Yes” and the leak result is on record as “Yes”. For the same molecule, in the data set on normal human fibroblasts [3], the cell-permeating entry was “Yes” and the Penetration in liposome result is listed as “No”. In addition, the Toxicity result with normal human fibroblasts [4] is “No”.
The molecule `CCCCCCCCCCCCCCCCCC[N+](C)(C)Cc1ccccc1.[Cl-]` [Stearalkonium chloride, benzyldimethyl (octadecyl) ammonium chloride] returned a Viability in the data set with normal human fibroblasts [1] of 37.4%.
